# Measured values as given in PubChem BioAssay (NCI).
#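 Step 1: Grow cells in 96-well plates. Step 2: Expose to compound for 48 hours at 5 concentrations. Step 3: Interpolate endpoints linearly; if unreached, use highest concentration. GI50 = concentration required for 50% inhibition of growth. TGI denotes the concentration required for complete inhibition of growth.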
# Key:
# Test in all cases: inhibition of tumour cell growth, NCI panel, 48 h
# [1] = tested on: UACC-257 melanoma
# [2] = tested on: NCI-H460 lung
# [3] = tested on: OVCAR-4 ovarian
# [4] = tested on: MOLT-4 leukemia
# [5] = tested on: KM12 colon
# [6] = tested on: OVCAR-5 ovarian
# [7] = tested on: HS 578T breast
# [8] = tested on: M14 melanoma
# [9] = tested on: ACHN renal
# [10] = tested on: SW-620 colon
# [11] = tested on: HCT-15 colon
# [12] = tested on: NCI-H23 lung
# [13] = tested on: HCT-116 colon
# [14] = tested on: BT-549 breast
# [15] = tested on: HOP-92 NSCLC
# [16] = tested on: SNB-19 CNS
# [17] = tested on: SK-OV-3 ovarian
# [18] = tested on: OVCAR-8 ovarian
# [19] = tested on: SF-295 CNS
# [20] = tested on: SK-MEL-5 melanoma
# [21] = tested on: SN12C renal
# [22] = tested on: UO-31 renal
# [23] = tested on: UACC-62 melanoma
# [24] = tested on: CCRF-CEM leukemia
# [25] = tested on: HT29 colon
# [26] = tested on: OVCAR-3 ovarian
# [27] = tested on: SF-539 CNS
# [28] = tested on: LOX IMVI melanoma
# [29] = tested on: NCI-H226 lung
# [30] = tested on: RXF 393 renal
# [31] = tested on: MALME-3M melanoma
# [32] = tested on: 786-0 renal
# [33] = tested on: MCF7 breast
# [34] = tested on: MDA-MB-231 breast
# [35] = tested on: DU-145 prostate
# [36] = tested on: K-562 leukemia
# [37] = tested on: MDA-MB-435
# [38] = tested on: SK-MEL-2 melanoma
# [39] = tested on: COLO 205 colon
# [40] = tested on: NCI-H522 lung
# [41] = tested on: RPMI-8226 leukemia
# [42] = tested on: SR leukemia
# [43] = tested on: CAKI-1 renal
# [44] = tested on: HOP-62 NSCLC
# [45] = tested on: SNB-75 CNS
# [46] = tested on: U251 CNS
# [47] = tested on: SF-268 CNS
# [48] = tested on: A549 NSCLC
# [49] = tested on: PC-3 prostate
# [50] = tested on: HL-60(TB) leukemia
# [51] = tested on: NCI/ADR-RES ovarian
# [52] = tested on: IGROV1 ovarian
# [53] = tested on: T-47D breast
# [54] = tested on: SK-MEL-28 melanoma
# [55] = tested on: HCC-2998 colon
# [56] = tested on: EKVX NSCLC
# [57] = tested on: A498 renal
# [58] = tested on: TK-10 renal
smiles,measurement,setting,value
O=C(/C=C/c1ccc(Cl)cc1)c1ccc(Nc2nc(Nc3ccc(F)cc3)nc(Nc3ccc(F)cc3)n2)cc1,GI50,[1],> 100 µM
same,TGI,[1],> 100 µM
same,GI50,[2],38.9 µM
same,TGI,[2],> 100 µM
same,GI50,[3],65.7 µM
same,TGI,[3],> 100 µM
same,GI50,[4],24.5 µM
same,TGI,[4],98.7 µM
same,GI50,[5],25.7 µM
same,TGI,[5],> 100 µM
same,GI50,[6],> 100 µM
same,TGI,[6],> 100 µM
same,GI50,[7],52.3 µM
same,TGI,[7],> 100 µM
same,GI50,[8],20.7 µM
same,TGI,[8],42 µM
same,GI50,[9],72 µM
same,TGI,[9],> 100 µM
same,GI50,[10],29.2 µM
same,TGI,[10],76.5 µM
same,GI50,[11],53.7 µM
same,TGI,[11],> 100 µM
same,GI50,[12],41 µM
same,TGI,[12],> 100 µM
same,GI50,[13],12.2 µM
same,TGI,[13],25.5 µM
same,GI50,[14],19 µM
same,TGI,[14],36.9 µM
same,GI50,[15],26.6 µM
same,TGI,[15],> 100 µM
same,GI50,[16],94.1 µM
same,TGI,[16],> 100 µM
same,GI50,[17],43.7 µM
same,TGI,[17],> 100 µM
same,GI50,[18],74.4 µM
same,TGI,[18],> 100 µM
same,GI50,[19],22.6 µM
same,TGI,[19],58.5 µM
same,GI50,[20],46.9 µM
same,TGI,[20],> 100 µM
same,GI50,[21],> 100 µM
same,TGI,[21],> 100 µM
same,GI50,[22],19.4 µM
same,TGI,[22],> 100 µM
same,GI50,[23],> 100 µM
same,TGI,[23],> 100 µM
same,GI50,[24],31.9 µM
same,TGI,[24],> 100 µM
same,GI50,[25],35.1 µM
same,TGI,[25],> 100 µM
same,GI50,[26],32.2 µM
same,TGI,[26],89.8 µM
same,GI50,[27],24 µM
same,TGI,[27],51.9 µM
same,GI50,[28],27.4 µM
same,TGI,[28],70.2 µM
same,GI50,[29],24.5 µM
same,TGI,[29],53.8 µM
same,GI50,[30],21.2 µM
same,TGI,[30],46.1 µM
same,GI50,[31],> 100 µM
same,TGI,[31],> 100 µM
same,GI50,[32],23.1 µM
same,TGI,[32],56.3 µM
same,GI50,[33],9.45 µM
same,TGI,[33],> 100 µM
same,GI50,[34],> 100 µM
same,TGI,[34],> 100 µM
same,GI50,[35],> 100 µM
same,TGI,[35],> 100 µM
same,GI50,[36],53.1 µM
same,TGI,[36],> 100 µM
same,GI50,[37],23 µM
same,TGI,[37],50 µM
same,GI50,[38],40.8 µM
same,TGI,[38],> 100 µM
same,GI50,[39],16.7 µM
same,TGI,[39],45.4 µM
same,GI50,[40],35.6 µM
same,TGI,[40],> 100 µM
same,GI50,[41],4.99 µM
same,TGI,[41],26.3 µM
same,GI50,[42],22.3 µM
same,TGI,[42],74.3 µM
same,GI50,[43],80.4 µM
same,TGI,[43],> 100 µM
same,GI50,[44],> 100 µM
same,TGI,[44],> 100 µM
same,GI50,[45],67.8 µM
same,TGI,[45],> 100 µM
same,GI50,[46],19.8 µM
same,TGI,[46],41.6 µM
same,GI50,[47],56.1 µM
same,TGI,[47],> 100 µM
same,GI50,[48],49.9 µM
same,TGI,[48],> 100 µM
same,GI50,[49],41.1 µM
same,TGI,[49],> 100 µM
same,GI50,[50],39 µM
same,TGI,[50],> 100 µM
same,GI50,[51],43.9 µM
same,TGI,[51],> 100 µM
same,GI50,[52],13.7 µM
same,TGI,[52],30.9 µM
same,GI50,[53],19.2 µM
same,TGI,[53],> 100 µM
same,GI50,[54],24.6 µM
same,TGI,[54],61.7 µM
same,GI50,[55],17.7 µM
same,TGI,[55],41.2 µM
same,GI50,[56],95.7 µM
same,TGI,[56],> 100 µM
same,GI50,[57],34.6 µM
same,TGI,[57],98.5 µM
same,GI50,[58],> 100 µM
same,TGI,[58],> 100 µM
